Assay results: US12583893B2, “Use of esculentin and its derivatives for use in the treatment of cystic fibrosis” (UNIVERSITÀ DEGLI STUDI DI ROMA LA SAPIENZA, priority 2019, dated 2026)
“Also recorded” adds a separate entry of the source. Square brackets hold non-standard residues; d marks the D form. Ends that are not written are not given here. d(pS) = N[C@H](COP(=O)(O)O)C(=O)O

What was measured:
Pseudomonas aeruginosa = conditions: cited from earlier work
F508del CFTR [1] = molecular target: T1, F508del CFTR (Homo sapiens, UniProt P13569, DEL508-508); assay: CFTR-dependent trans-epithelial conductance by TEER in F508del-CFBE pre-incubated with Vx-809; format: cell-based; parameters: expressed in transfected cells; host or cells: CFBE41o- human bronchial epithelial cells, lentiviral transduction (F508del-CFBE); conditions: for CFTR conductance: 10 μM peptide + 20 μM FSK without GEN, 10 min, pre-incubated 24 h with 1 μM Vx-809
T1 sequence (P13569 with tags, fused parts or gaps DEL508-508): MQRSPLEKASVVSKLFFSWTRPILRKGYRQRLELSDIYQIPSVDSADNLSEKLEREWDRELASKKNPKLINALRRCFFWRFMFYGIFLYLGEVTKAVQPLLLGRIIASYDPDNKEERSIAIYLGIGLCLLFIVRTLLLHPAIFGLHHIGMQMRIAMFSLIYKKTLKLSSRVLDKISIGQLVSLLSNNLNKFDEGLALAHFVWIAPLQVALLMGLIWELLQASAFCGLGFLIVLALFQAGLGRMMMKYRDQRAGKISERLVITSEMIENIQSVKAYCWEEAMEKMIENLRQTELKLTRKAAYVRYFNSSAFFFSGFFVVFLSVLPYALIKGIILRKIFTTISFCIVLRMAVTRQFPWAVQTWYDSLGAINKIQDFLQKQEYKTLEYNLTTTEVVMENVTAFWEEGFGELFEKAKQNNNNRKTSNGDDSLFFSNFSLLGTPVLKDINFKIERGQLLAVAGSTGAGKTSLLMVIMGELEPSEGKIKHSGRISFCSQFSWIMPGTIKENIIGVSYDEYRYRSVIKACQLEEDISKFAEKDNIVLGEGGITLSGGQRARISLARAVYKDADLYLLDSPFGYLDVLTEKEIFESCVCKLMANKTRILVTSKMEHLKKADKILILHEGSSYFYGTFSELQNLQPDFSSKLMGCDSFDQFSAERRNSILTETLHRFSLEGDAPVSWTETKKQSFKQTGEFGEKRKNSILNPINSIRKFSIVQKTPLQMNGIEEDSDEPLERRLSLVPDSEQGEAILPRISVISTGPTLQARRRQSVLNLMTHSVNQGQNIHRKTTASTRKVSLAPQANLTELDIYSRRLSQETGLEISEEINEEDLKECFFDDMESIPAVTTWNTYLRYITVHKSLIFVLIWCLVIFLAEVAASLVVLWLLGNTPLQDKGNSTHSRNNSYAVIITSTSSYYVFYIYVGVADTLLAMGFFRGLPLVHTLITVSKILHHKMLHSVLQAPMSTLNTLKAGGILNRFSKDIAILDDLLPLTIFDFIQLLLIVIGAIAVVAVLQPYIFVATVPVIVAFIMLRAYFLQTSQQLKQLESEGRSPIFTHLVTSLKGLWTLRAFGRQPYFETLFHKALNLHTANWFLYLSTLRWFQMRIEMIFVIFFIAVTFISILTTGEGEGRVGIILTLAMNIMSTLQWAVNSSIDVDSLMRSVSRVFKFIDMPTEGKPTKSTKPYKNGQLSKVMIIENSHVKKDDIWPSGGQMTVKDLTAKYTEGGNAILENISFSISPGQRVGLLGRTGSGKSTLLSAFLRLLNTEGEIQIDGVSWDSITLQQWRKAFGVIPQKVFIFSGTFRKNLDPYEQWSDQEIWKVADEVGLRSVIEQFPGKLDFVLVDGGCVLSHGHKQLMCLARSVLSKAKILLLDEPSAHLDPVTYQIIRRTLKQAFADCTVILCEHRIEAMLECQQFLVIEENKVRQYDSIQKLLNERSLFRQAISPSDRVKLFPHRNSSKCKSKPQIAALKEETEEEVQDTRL
Protocol: In parallel, to evaluate CFTR activation, the same saline solution was used. After measurement of basal TEER, 20 μM FSK+50 μM GEN as positive control, or FSK+ peptides at the desired concentration were added on the epithelium apical side. Finally, 30 μM PPQ102, a specific inhibitor of CFTR, was added on the epithelium apical side. After each addition, we waited ten minutes at 37° C. before measurement. From the values of TEER measured before and after CFTR inhibition, we calculated the CFTR-dependent trans-epithelial conductance for each condition [Sondo E, Falchi F, Caci E, Ferrera L, Giacomini E, Pesce E, Tomati V, Mandrup Bertozzi S, Goldoni L, Armirotti A, Ravazzolo R, Cavalli A, Pedemonte N (2018) Pharmacological Inhibition of the Ubiquitin Ligase RNF5 Rescues F508del-CFTR in Cystic Fibrosis Airway Epithelia. Cell Chem Biol 25, 891-905 e898].
Subsequently, was investigated the ability of Esc peptides to act as potentiators of mutated CFTR, by promoting its phosphorylation state or its channel opening time, mimicking the activity of forskolin (FSK) or genistein (GEN), respectively, which are both needed for full activation of CFTR [Sondo E, Falchi F, Caci E, Ferrera L, Giacomini E, Pesce E, Tomati V, Mandrup Bertozzi S, Goldoni L, Armirotti A, Ravazzolo R, Cavalli A, Pedemonte N (2018) Pharmacological Inhibition of the Ubiquitin Ligase RNF5 Rescues F508del-CFTR in Cystic Fibrosis Airway Epithelia. Cell Chem Biol 25, 891-905 e898]. Noteworthy, the adenylate cyclase activator FSK [Ma T, Thiagarajah J R, Yang H, Sonawane N D, Folli C, Galietta L J, Verkman A S (2002) Thiazolidinone CFTR inhibitor identified by high-throughput screening blocks cholera toxin-induced intestinal fluid secretion. J Clin Invest 110, 1651-1658] is reported to trigger an increase of intracellular cAMP favouring CFTR phosphorylation by cellular protein kinases e.g. PKA, while the isoflavone GEN accelerates channel opening, by promoting NBD dimerization, and slows channel closure by stabilizing the NBD1:NBD2 dimer conformation [Schmidt A, Hughes L K, Cai Z, Mendes F, Li H, Sheppard D N, Amaral M D (2008) Prolonged treatment of cells with genistein modulates the expression and function of the cystic fibrosis transmembrane conductance regulator. Br J Pharmacol 153, 1311-1323]. The CFTR-mediated conductance of bronchial epithelium was evaluated by TEER, after 10 min, 1 h and 2 h treatment of F508del-CFBE (pre-incubated with the corrector Vx-809 in order to trigger the mutated protein to the apical membrane) with Esc(1-21)-1c (10 μM), in the absence of FSK or GEN. […] This clearly denoted that the peptide was able to potentiate CFTR activity, likely by prolonging its channel opening time.
The conductance was then measured on F508del-CFBE. […]

F508del CFTR [2] = molecular target: T1, F508del CFTR; assay: Ussing chamber short-circuit current on bronchial epithelia from homozygous F508del patient; format: cell-based; parameters: Ussing chamber experiments on bronchial epithelia from homozygous F508del patient; host or cells: primary human bronchial epithelial cells from a CF patient homozygous for F508del; conditions: epithelia incubated 24 h with 1 μM Vx-809, then amiloride, cpt-cAMP and potentiator
Protocol: Snapwell inserts (Corning 3801) carrying differentiated bronchial epithelia were mounted in a vertical diffusion chamber, resembling a Ussing chamber with internal fluid circulation. Both apical and basolateral chambers were filled with 5 ml of saline solution. The short-circuit current was recorded with a PowerLab 4/25 (ADInstruments) analog-to-digital converter connected to a computer. Epithelia were incubated for 24 h with 1 μM Vx-809 or 0.1% DMSO. Afterwards, 10 μM amiloride was added; subsequently, CFTR channels were activated by phosphorylation upon addition of 100 μM cpt-cAMP (permeable cAMP analog). Then, 1 μM of the potentiator Vx-770 as well as each Esc peptide was added on the epithelium apical side, as indicated. Finally, 10 μM Inh172, a specific inhibitor of CFTR was added to the epithelium apical side. Measurements were done after 5 min from the addition of each substance. In parallel, epithelia pre-incubated for 24 h with each peptide and then treated with amiloride, cpt-cAMP and Vx-770 were used for comparison.
The CFTR potentiating activity of Esc peptides in primary airway epithelial cells was studied by Ussing chamber experiments on bronchial epithelia from homozygous F508del patient. Epithelia were treated for 24 h with 0.1% DMSO vehicle alone, 1 μM Vx809 or with each Esc peptide. […]

Pseudomonas = conditions: single intra-tracheal instillation, cited from earlier work
F508del-CFBE = conditions: compared with Esc(1-21); cited from earlier work
wt-CFBE = conditions: compared with Esc(1-21); cited from earlier work
P. aeruginosa biofilm = conditions: compared with Esc(1-21); cited from earlier work
F508del CFTR [3] = molecular target: T1, F508del CFTR; assay: Trans-epithelial electrical conductance in del508-FRT cells, position-17 analogs; format: cell-based; parameters: expressed in transfected cells; conditions: 10 min treatment with 10 μM peptide tested as potentiator (instead of genistein)
From the text: To understand whether the potentiator effect of Esc peptides was specifically dependent on their sequence and/or correlated to the presence of Ser17, eventually upon its phosphorylation by PKA, a series of peptide analogs bearing different L/D amino acids at position 17 were synthesized, the analogs are presented in the following table 1. The analogs were used to measure the trans-epithelial electrical conductance in […] Rat Thyroid cells, which is a cell line frequently used for functional studies and stably expressing F508del-CFTR (del508-FRT). Among them, compounds 3 and 5 carrying L and D-Alanine, respectively; compound 6 carrying the achiral Glycine17; compounds 7 and 8, with another potential target amino acid of protein kinases i.e. D and L-threonine respectively; and compounds 9 ad 10 where Ser17 was replaced by a residue with a bulky side chain, i.e. D and L tryptophan, respectively. Furthermore, an analog with L-phosphoserine at position 17 were included for comparison.

Which antipseudomonal activity (Pseudomonas aeruginosa) does the source give for “GIFSKLAGKKIKNLLISGLKG-NH2 [Esc(1-21), first 20 amino acids of Esculentin 1a with a glycinamide residue at the C-terminus]” here?
The antipseudomonal activity was “potent antipseudomonal activity”.

With temporin A [reference compound] as the molecule, how does the CFTR conductance (F508del CFTR [1]) read?
Its CFTR conductance is “no effect on CFTR currents”.

With CC(C)(C)c1cc(C(C)(C)C)c(NC(=O)c2c[nH]c3ccccc3c2=O)cc1O [Vx-770] as the molecule, how does the “CFTR-mediated current as potentiator” value (F508del CFTR [2]) read?
The value was “significant current increase”.

Which results are given for “Gly-Ile-Phe-Ser-Lys-Leu-Ala-Gly-Lys-Lys-Ile-Lys-Asn-dLeu-Leu-Ile-dSer-Gly-Leu-Lys-Gly-NH2 (GIFSKLAGKKIKN[dL]LI[dS]GLKG-NH2) [Esc(1-21)-1c, diastereomer of Esc(1-21) with two D-amino acids]”?
reduction of lung bacterial burden (Pseudomonas; 0.1 mg/kg corresponding to 20 μM, compared with Esc(1-21)): more potent in reducing lung bacterial burden; toxicity or inflammatory side events (Pseudomonas; 0.1 mg/kg): negligible toxicity or inflammatory side events; re-epithelialization of bronchial epithelial cells (F508del-CFBE): more efficient to induce re-epithelialization; CFTR conductance (F508del CFTR [1]): significant increase of CFTR conductance; potentiator activity (CFTR conductance) over time (F508del CFTR [1]; 10 μM peptide + FSK without GEN, 1 h or 2 h treatment, pre-incubated with Vx-809): remain constant up to 2 h; CFTR-mediated conductance (rescue of CFTR activity) (F508del CFTR [1]; 10 μM peptide in the absence of FSK, pre-incubated with Vx-809): no rescue of CFTR activity; re-epithelialization of bronchial epithelial cells (wt-CFBE): more efficient to induce re-epithelialization; activity against P. aeruginosa biofilm (P. aeruginosa biofilm): more active against P. aeruginosa biofilm

Which “transepithelial conductance (function of F508del-CFTR)” value (F508del CFTR [3]) does the source give for “Gly-Ile-Phe-Ser-Lys-Leu-Ala-Gly-Lys-Lys-Ile-Lys-Asn-dLeu-Leu-Ile-dphosphoSer-Gly-Leu-Lys-Gly-NH2 (GIFSKLAGKKIKN[dL]LI[d(pS)]GLKG-NH2; N-terminus assumed; SMILES CC[C@H](C)[C@H](NC(=O)CN)C(=O)N[C@@H](Cc1ccccc1)C(=O)N[C@@H](CO)C(=O)N[C@@H](CCCCN)C(=O)N[C@@H](CC(C)C)C(=O)N[C@@H](C)C(=O)NCC(=O)N[C@@H](CCCCN)C(=O)N[C@@H](CCCCN)C(=O)N[C@H](C(=O)N[C@@H](CCCCN)C(=O)N[C@@H](CC(N)=O)C(=O)N[C@H](CC(C)C)C(=O)N[C@@H](CC(C)C)C(=O)N[C@H](C(=O)N[C@H](COP(=O)(O)O)C(=O)NCC(=O)N[C@@H](CC(C)C)C(=O)N[C@@H](CCCCN)C(=O)NCC(N)=O)[C@@H](C)CC)[C@@H](C)CC) [compound 2, carrying D-phosphoSer at position 17]” here?
Its value is “significantly increase; also recorded: higher than that of genistein”.
